Some targets named below: Mu-type opioid receptor (Homo sapiens, UniProt P35372); Histamine H1 receptor (Homo sapiens, UniProt P35367); Melanocortin receptor 3 (Homo sapiens, UniProt P41968); Melanocortin receptor 4 (Homo sapiens, UniProt P32245); D(3) dopamine receptor (Homo sapiens, UniProt P35462).
For assay [1], the target named is 5-hydroxytryptamine receptor 2A (Homo sapiens, UniProt P28223). It is filed as functional, cell-based.
Assay [2] has as its target T1, Cannabinoid receptor 1 (Homo sapiens, UniProt P21554). Type of assay: functional, cell-based.
In assay [3] the target is Voltage-gated inwardly rectifying potassium channel KCNH2 (Homo sapiens, UniProt Q12809). Type of assay: functional. Conditions: read-out: AC50.
Sequence of Voltage-gated inwardly rectifying potassium channel KCNH2 (Q12809 whole entry): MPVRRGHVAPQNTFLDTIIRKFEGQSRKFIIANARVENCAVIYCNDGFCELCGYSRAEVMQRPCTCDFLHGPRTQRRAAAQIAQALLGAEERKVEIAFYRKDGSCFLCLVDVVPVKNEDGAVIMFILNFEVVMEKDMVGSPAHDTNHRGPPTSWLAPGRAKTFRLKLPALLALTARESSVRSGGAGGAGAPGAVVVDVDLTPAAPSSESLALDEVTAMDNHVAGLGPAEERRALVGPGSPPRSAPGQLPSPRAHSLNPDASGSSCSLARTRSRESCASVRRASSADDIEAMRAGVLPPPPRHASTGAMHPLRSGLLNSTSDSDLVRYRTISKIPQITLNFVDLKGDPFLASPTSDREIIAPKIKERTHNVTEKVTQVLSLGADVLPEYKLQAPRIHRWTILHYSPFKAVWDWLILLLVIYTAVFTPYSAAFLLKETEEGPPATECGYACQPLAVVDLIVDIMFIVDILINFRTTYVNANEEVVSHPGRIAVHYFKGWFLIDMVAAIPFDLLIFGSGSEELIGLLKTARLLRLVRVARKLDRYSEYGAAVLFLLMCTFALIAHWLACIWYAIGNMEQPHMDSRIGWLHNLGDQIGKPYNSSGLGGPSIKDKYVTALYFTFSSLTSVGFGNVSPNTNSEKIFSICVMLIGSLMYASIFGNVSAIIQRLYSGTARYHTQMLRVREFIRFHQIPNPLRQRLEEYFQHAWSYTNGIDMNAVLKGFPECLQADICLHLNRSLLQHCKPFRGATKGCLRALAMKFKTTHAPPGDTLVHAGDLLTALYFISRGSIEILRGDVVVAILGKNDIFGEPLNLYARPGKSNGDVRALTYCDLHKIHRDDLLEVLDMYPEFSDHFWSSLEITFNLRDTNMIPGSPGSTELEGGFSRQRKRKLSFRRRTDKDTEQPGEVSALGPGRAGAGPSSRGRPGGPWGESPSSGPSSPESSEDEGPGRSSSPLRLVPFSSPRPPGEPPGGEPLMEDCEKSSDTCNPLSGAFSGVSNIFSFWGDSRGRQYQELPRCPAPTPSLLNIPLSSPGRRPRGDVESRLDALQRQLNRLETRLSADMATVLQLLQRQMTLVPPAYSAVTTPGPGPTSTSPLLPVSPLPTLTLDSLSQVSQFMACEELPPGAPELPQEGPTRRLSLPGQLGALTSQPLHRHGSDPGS
Assay [4] deals with 3',5'-cyclic-AMP phosphodiesterase 4D (Homo sapiens, UniProt Q08499). It is filed as functional.
Sequence of 3',5'-cyclic-AMP phosphodiesterase 4D (Q08499 whole entry): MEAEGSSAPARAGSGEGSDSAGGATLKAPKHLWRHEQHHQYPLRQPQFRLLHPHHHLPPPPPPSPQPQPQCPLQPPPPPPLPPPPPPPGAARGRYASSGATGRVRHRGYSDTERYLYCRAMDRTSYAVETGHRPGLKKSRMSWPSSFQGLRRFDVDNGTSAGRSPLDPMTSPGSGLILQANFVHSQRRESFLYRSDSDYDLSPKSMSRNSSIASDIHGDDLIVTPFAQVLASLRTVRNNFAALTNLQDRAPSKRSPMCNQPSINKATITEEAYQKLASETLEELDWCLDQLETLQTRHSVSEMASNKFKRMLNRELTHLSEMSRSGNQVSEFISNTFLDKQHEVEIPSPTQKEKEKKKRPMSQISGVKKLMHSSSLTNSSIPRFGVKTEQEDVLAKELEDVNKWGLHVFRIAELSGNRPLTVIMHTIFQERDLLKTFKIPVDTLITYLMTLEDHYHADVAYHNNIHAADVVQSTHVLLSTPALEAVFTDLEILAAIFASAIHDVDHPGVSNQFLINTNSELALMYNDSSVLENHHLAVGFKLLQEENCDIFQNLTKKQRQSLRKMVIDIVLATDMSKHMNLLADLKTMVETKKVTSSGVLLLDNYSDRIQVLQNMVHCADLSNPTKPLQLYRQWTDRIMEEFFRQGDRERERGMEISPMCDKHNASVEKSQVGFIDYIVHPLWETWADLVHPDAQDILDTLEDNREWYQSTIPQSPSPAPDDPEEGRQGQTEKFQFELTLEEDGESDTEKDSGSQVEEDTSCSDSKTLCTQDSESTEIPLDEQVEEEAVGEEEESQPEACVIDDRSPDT
Assay [5] has as its target Beta-2 adrenergic receptor (Homo sapiens, UniProt P07550). It is filed as functional, cell-based.
Assay [6] has as its target T2, Type-1 angiotensin II receptor (Homo sapiens, UniProt P30556).
T2 sequence (P30556 whole entry): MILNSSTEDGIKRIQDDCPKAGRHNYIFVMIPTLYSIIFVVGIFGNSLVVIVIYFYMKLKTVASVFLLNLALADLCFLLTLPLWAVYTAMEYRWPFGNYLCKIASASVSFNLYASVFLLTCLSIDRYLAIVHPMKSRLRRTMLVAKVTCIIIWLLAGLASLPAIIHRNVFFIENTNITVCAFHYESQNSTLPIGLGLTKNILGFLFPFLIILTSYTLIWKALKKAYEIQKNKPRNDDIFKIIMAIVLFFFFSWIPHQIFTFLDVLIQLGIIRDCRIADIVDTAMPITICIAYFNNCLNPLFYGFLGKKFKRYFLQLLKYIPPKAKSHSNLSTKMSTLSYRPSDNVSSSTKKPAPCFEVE

Assay [7] concerns the target T3, Muscarinic acetylcholine receptor M2 (Homo sapiens, UniProt P08172).
T3 sequence (P08172 whole entry): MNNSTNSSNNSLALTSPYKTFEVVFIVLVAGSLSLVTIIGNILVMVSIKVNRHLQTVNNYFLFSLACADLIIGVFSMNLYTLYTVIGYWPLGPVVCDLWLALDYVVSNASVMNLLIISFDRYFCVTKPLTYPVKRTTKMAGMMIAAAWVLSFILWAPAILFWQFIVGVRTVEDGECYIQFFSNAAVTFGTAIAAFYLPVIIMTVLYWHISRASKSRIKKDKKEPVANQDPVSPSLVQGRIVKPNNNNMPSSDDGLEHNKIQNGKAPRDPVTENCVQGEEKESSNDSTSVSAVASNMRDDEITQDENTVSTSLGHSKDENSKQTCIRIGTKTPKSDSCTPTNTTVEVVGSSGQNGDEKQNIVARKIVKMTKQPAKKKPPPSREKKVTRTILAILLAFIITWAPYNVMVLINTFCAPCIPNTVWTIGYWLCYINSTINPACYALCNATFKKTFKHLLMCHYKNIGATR
It is filed as functional, cell-based.

Another assay has as its target D(1A) dopamine receptor (Homo sapiens, UniProt P21728). Type of assay: functional, cell-based.
A further assay concerns the target T4, Endothelin-1 receptor (Homo sapiens, UniProt P25101).
T4 sequence (P25101 whole entry): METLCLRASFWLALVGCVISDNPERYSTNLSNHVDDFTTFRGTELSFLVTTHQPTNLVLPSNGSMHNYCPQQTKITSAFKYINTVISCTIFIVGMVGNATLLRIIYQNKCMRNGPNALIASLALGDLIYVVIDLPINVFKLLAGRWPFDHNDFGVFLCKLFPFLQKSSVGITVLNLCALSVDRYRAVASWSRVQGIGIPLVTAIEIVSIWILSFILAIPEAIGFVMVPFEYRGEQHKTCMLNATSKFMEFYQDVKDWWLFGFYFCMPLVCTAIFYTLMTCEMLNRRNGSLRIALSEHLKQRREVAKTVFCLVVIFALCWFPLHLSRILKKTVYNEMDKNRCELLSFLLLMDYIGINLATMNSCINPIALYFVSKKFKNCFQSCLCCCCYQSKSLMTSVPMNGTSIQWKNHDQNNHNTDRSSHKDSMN

Assay [8] deals with T1, Cannabinoid receptor 1.
A further assay has as its target T5, Glucocorticoid receptor (Homo sapiens, UniProt P04150).
T5 sequence (P04150 whole entry): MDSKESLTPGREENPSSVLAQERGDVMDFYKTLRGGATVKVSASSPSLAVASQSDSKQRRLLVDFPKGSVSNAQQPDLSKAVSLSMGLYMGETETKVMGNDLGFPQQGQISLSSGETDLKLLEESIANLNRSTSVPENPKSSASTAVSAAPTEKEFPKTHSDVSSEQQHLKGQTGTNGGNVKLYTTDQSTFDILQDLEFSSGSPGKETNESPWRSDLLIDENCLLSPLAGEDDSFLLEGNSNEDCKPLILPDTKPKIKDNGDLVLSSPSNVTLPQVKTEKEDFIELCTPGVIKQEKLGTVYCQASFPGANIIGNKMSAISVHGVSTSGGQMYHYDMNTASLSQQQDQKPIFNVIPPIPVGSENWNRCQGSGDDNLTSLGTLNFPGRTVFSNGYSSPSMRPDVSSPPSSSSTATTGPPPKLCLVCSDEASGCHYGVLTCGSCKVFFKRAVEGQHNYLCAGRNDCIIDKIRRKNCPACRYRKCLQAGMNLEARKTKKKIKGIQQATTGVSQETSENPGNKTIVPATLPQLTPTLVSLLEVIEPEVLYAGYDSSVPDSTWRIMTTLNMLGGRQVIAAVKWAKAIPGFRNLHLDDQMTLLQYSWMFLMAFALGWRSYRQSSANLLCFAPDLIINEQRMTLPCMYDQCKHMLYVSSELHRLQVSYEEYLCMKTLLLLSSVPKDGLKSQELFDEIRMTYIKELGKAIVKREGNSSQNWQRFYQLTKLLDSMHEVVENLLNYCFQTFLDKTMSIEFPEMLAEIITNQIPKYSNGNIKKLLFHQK

Bounds are passed on as bounds.
Further: assay procedure not described here.

Sequence of D(1A) dopamine receptor (P21728 whole entry): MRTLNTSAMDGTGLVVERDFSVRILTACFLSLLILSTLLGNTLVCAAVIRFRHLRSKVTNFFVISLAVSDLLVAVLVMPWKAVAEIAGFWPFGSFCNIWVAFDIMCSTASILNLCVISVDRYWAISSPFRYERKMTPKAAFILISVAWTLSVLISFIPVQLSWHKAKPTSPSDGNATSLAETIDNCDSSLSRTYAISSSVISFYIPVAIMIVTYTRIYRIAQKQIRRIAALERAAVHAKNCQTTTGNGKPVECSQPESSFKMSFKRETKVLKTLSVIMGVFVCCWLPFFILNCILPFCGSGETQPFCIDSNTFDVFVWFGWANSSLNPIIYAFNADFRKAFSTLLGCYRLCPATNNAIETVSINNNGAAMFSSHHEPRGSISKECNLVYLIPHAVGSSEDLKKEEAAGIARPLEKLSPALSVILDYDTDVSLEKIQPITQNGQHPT
Sequence of Histamine H1 receptor (P35367 whole entry): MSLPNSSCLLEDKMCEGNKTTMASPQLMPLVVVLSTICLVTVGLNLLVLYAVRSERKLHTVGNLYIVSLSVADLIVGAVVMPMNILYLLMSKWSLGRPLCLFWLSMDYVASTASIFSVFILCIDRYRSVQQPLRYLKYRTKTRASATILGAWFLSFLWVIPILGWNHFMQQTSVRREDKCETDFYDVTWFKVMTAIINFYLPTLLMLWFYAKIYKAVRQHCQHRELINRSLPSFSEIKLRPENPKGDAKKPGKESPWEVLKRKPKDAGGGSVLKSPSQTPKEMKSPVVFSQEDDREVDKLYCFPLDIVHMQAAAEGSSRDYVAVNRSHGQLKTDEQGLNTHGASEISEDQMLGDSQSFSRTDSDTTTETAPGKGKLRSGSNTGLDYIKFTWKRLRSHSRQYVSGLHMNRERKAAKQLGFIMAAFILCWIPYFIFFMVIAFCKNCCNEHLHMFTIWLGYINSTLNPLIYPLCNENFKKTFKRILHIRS
Sequence of D(3) dopamine receptor (P35462 whole entry): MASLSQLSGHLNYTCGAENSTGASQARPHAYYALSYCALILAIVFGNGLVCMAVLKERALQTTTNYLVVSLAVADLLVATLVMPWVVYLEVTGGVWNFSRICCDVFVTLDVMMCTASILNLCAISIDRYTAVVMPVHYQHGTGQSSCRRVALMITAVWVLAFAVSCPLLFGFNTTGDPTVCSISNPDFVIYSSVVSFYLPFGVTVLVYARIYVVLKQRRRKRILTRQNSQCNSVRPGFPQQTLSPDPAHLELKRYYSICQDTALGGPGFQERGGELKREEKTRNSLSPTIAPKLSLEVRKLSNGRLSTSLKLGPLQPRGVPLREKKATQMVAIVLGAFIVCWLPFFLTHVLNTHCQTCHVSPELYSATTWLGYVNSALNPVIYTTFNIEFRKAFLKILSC
Sequence of Melanocortin receptor 4 (P32245 whole entry): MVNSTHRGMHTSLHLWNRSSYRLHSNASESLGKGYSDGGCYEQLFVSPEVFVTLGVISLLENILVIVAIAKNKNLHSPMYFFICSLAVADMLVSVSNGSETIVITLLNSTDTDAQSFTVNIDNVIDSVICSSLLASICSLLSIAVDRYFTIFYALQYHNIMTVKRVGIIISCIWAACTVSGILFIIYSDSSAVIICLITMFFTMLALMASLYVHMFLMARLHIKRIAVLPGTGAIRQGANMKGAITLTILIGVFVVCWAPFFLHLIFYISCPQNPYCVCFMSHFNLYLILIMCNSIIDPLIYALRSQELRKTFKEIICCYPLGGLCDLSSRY
Sequence of Melanocortin receptor 3 (P41968 whole entry): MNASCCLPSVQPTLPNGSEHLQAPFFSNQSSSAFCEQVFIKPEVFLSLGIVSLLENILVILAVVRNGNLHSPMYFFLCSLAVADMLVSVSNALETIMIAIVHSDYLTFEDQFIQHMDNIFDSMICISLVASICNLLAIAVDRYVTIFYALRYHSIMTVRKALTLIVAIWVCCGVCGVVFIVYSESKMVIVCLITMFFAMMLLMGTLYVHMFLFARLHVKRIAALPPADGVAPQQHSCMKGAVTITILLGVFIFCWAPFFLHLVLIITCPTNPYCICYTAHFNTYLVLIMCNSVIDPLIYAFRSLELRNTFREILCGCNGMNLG
Sequence of Mu-type opioid receptor (P35372 whole entry): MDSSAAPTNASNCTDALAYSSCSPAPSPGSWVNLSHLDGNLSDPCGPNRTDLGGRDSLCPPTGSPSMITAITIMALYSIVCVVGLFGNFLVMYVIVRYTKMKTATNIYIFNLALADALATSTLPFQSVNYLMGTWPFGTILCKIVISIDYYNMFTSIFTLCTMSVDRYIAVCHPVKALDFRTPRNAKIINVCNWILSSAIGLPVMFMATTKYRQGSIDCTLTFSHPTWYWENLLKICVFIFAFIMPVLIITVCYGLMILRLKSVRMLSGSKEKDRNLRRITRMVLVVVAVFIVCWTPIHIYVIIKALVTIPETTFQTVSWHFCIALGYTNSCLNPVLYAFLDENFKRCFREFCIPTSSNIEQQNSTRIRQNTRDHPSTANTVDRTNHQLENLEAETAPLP
Sequence of 5-hydroxytryptamine receptor 2A (P28223 whole entry): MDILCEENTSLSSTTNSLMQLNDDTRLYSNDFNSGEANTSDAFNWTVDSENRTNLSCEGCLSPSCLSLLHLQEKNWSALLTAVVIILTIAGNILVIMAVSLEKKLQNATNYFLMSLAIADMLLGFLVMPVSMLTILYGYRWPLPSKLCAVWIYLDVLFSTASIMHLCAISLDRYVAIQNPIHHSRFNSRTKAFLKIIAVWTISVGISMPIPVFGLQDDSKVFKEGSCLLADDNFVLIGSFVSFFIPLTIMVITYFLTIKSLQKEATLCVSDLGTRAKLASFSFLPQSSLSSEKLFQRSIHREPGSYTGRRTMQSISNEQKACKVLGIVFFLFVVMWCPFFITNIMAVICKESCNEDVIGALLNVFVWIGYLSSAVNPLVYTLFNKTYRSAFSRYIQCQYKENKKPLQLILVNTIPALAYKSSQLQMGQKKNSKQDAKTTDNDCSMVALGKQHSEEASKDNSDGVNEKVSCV

For `NC(CO)C(=O)NNCc1ccc(O)c(O)c1O` (stereo not drawn) [BENSERAZIDE], the AC50 on Mu-type opioid receptor was more than 10 µM; in assay [1], more than 30 µM; on Cannabinoid receptor 1 [2], more than 30 µM; in [3], more than 30 µM; in assay [4], more than 30 µM; at Histamine H1 receptor, more than 10 µM. The AC50 in assay [5] was more than 30 µM; in assay [6], more than 30 µM; on Melanocortin receptor 3, more than 30 µM; in [7] it was more than 10 µM; at D(1A) dopamine receptor it was more than 10 µM; at Endothelin-1 receptor, more than 30 µM. In addition, the results for the AC50 at Cannabinoid receptor 1 [8], at Melanocortin receptor 4 and at D(3) dopamine receptor were more than 10 µM, more than 30 µM and more than 30 µM, respectively.
Regarding `CCN1CCC[C@H]1CNC(=O)c1cc(S(N)(=O)=O)ccc1OC` [LEVOSULPIRIDE], the AC50 (at Mu-type opioid receptor; on Cannabinoid receptor 1 [2]; in [3]; in assay [4]; in assay [5]; in assay [6]) was more than 30 µM in each case. Besides, the AC50 on Melanocortin receptor 3 is more than 30 µM; in assay [7] it was more than 10 µM; on D(1A) dopamine receptor, more than 30 µM; on Glucocorticoid receptor it was more than 30 µM; at Cannabinoid receptor 1 [8], more than 10 µM; at Melanocortin receptor 4, more than 30 µM.
As to `CCN(CC)CCOC(=O)c1ccc(N)cc1` [PROCAINE], the AC50 at Mu-type opioid receptor was more than 30 µM; on Cannabinoid receptor 1 [2], more than 30 µM; in [3], more than 30 µM; in assay [4], more than 10 µM; in assay [5], more than 30 µM; in assay [6], more than 30 µM. Also, the half-maximal activity concentration (AC50) on Melanocortin receptor 3 was more than 30 µM; in [7], more than 10 µM; on D(1A) dopamine receptor it was more than 10 µM; on Cannabinoid receptor 1 [8], more than 10 µM; at Melanocortin receptor 4 it was more than 30 µM; on D(3) dopamine receptor, more than 30 µM.
`CN1CC(=O)N2[C@H](c3ccc4c(c3)OCO4)c3[nH]c4ccccc4c3C[C@@H]2C1=O`: the half-maximal activity concentration (AC50) was more than 30 µM on Mu-type opioid receptor; more than 30 µM in assay [1]; more than 30 µM at Cannabinoid receptor 1 [2]; more than 30 µM in [3]; more than 10 µM on Histamine H1 receptor; more than 30 µM in assay [5]. Also, the half-maximal activity concentration (AC50) was more than 30 µM in [6]; more than 30 µM on Melanocortin receptor 3; more than 10 µM in assay [7]; more than 10 µM at D(1A) dopamine receptor; more than 30 µM on Glucocorticoid receptor; more than 10 µM at Cannabinoid receptor 1 [8]. Moreover, the AC50 on Melanocortin receptor 4 and at D(3) dopamine receptor was more than 30 µM throughout.
With `CC(Cc1ccccc1)NCCC(c1ccccc1)c1ccccc1` (stereo not drawn) [PRENYLAMINE], the AC50 on Mu-type opioid receptor was 1.8 µM; in assay [1], more than 30 µM; in assay [3], 0.736 µM; in assay [4], more than 30 µM; at Histamine H1 receptor it was 7.9 µM; in assay [5], more than 30 µM. For the same molecule, the AC50 in [6] was more than 30 µM; at Melanocortin receptor 3, more than 30 µM; in [7] it was more than 10 µM; on D(1A) dopamine receptor, more than 30 µM; on Glucocorticoid receptor, more than 30 µM; at Cannabinoid receptor 1 [8] it was 7.95 µM. For the same molecule, the AC50 at Melanocortin receptor 4 turned out to be 6.4 µM; on D(3) dopamine receptor, 2.4 µM.
As to `CC(C)c1c(C(=O)Nc2ccccc2)c(-c2ccccc2)c(-c2ccc(F)cc2)n1CC[C@@H](O)C[C@@H](O)CC(=O)O` [ATORVASTATIN], the AC50 (at Cannabinoid receptor 1 [2]; in assay [4]; in assay [5]; in assay [6]; at Melanocortin receptor 3; on Endothelin-1 receptor) was more than 30 µM throughout. The concentration at half-maximal activity (AC50) on Cannabinoid receptor 1 [8] was more than 10 µM; on Melanocortin receptor 4, more than 30 µM; on D(3) dopamine receptor, more than 30 µM.
For `CC/C=C\C/C=C\C/C=C\CCCCCCCC(=O)O` [LINOLENIC ACID], the AC50 (on Mu-type opioid receptor; in assay [1]; at Cannabinoid receptor 1 [2]; in assay [3]; in [4]; on Histamine H1 receptor) was more than 30 µM in each case. For the same molecule, the AC50 (in assay [5]; in assay [6]; at Melanocortin receptor 3; in assay [7]; on D(1A) dopamine receptor; on Endothelin-1 receptor) was more than 30 µM throughout. Further, at D(3) dopamine receptor, the AC50 was more than 30 µM.
Turning to `Cc1cc(-c2ccccc2)nnc1NCCN1CCOCC1` [MINAPRINE], the AC50 at Mu-type opioid receptor was more than 30 µM; in [1], more than 30 µM; at Cannabinoid receptor 1 [2], more than 30 µM; in [3], 3.44 µM; in [4], more than 30 µM; at Histamine H1 receptor it was more than 10 µM. The AC50 is more than 30 µM in assay [5]; more than 30 µM in assay [6]; more than 30 µM on Melanocortin receptor 3; more than 10 µM in assay [7]; more than 10 µM on D(1A) dopamine receptor; more than 30 µM on Endothelin-1 receptor. The AC50 was 9.5 µM at Cannabinoid receptor 1 [8], more than 30 µM on Melanocortin receptor 4 and more than 10 µM at D(3) dopamine receptor.
In the case of `NC(=O)C[S+]([O-])C(c1ccccc1)c1ccccc1` (stereo not drawn) [MODAFINIL], the AC50 was more than 10 µM at Mu-type opioid receptor; more than 30 µM at Cannabinoid receptor 1 [2]; more than 30 µM in assay [3]; more than 30 µM in [4]; more than 30 µM in [5]; more than 30 µM in assay [6]. For the same molecule, the AC50 at Melanocortin receptor 3 was 21.2 µM; in assay [7], more than 10 µM; at D(1A) dopamine receptor it was more than 10 µM; at Glucocorticoid receptor it was more than 30 µM; on Endothelin-1 receptor, more than 30 µM; on Cannabinoid receptor 1 [8], more than 10 µM. The values for the AC50 at Melanocortin receptor 4 and on D(3) dopamine receptor were 24.1 µM and more than 10 µM, respectively.
Turning to `CN[C@@H](C)[C@H](O)c1ccccc1` [EPHEDRINE], the AC50 on Mu-type opioid receptor is more than 30 µM; at Cannabinoid receptor 1 [2], more than 30 µM; in assay [3], more than 30 µM; in assay [4] it was more than 30 µM; on Histamine H1 receptor, more than 10 µM; in [5], more than 30 µM. The AC50 was more than 30 µM in assay [6]; more than 30 µM at Melanocortin receptor 3; more than 10 µM in [7]; more than 10 µM on D(1A) dopamine receptor; more than 30 µM at Glucocorticoid receptor; more than 30 µM on Endothelin-1 receptor. The AC50 at Cannabinoid receptor 1 [8] was more than 10 µM; on Melanocortin receptor 4, more than 30 µM; on D(3) dopamine receptor, more than 10 µM.

As usually defined, the AC50 is the midpoint of the concentration-response curve, whichever way the signal moves.

These data come from ChEMBL document CHEMBL5291721, “A preclinical secondary pharmacology resource illuminates target-adverse drug reaction associations of marketed drugs” (Nat Commun, 2023).
